Laboratory results reported in BigSolDB 2.1.

Cc1ncc([N+](=O)[O-])n1CCO
solubility (mole fraction)
Settings	298.15 K	303.15 K	308.15 K	313.15 K	318.15 K	323.15 K	328.15 K	333.15 K
in transcutol	0.0207	0.0227	0.0244	0.0263	0.0283	0.0303	0.033	0.0361
in water	0.00111	0.00119	0.00128	0.00137	0.00147	0.00159	0.0017	0.00182
